Here are results for 22 compounds from US20100179130A1, “USE OF PIPERINE AND DERIVATIVES THEREOF FOR THE THERAPY OF NEUROLOGICAL CONDITIONS” (SYNGIS Bioscience GmbH & Co. KG, priority 2007, published 2010).

The subject of series [1] is SH-SY5Y neuronal cells. Put plainly: In vitro anti-apoptosis assay, staurosporine induced apoptosis, Caspase-Glo 3/7. It is filed as cell-based, human. Particulars: for degree of apoptosis relative to the staurosporine control: compound 1 μM in the presence of staurosporine 0.1 μM.
In series [2] the test system is motoneural cell line NSC-34. Put plainly: Anti-apoptosis assay on motoneural cell line, staurosporine induced apoptosis, Caspase-Glo 3/7. It is filed as cell-based. The following applies: for degree of apoptosis relative to the staurosporine control: compound 1 μM in the presence of staurosporine 0.1 μM. The protocol: Instead of the SH-SY5Y cells used in Example 3 and 4, this analysis was performed with motoneural cell line NSC-34. […] Incubation with staurosporine (SP; 0.1 μM) alone served as positive control and incubation with vehicle served as negative control. The degree of apoptosis relative to the staurosporine control is shown in FIG. 4 (vehicle (sham): 6%; staurosporine (SP): 100%; piperine plus staurosporine: 70%; derivative B plus staurosporine: 55%; derivative E plus staurosporine: 75%; derivative G plus staurosporine: 76%; derivative K plus staurosporine: 83%; derivative S plus staurosporine: 77%; derivative U plus staurosporine: 71%).

Series [3] relates to SH-SY5Y neuronal cells. Put plainly: In vitro viability assay, cells stably transfected with constitutive Renilla luciferase. The following applies: 1 μM, 5 h. The text has this:
The viability assay allows for further assessment of test compounds regarding their effect on cells such as neurons. […] Subsequently, the signal generated by the reporter construct serves as a readout for the viability of the cells in the presence of the test compound. The assay enables the evaluation of potential neurotoxic effects of the test compound itself.
The effect of a compound on the viability of neuronal cells can be assayed in vitro by measuring the survival of neuronal cells transfected with a reporter construct under a constitutive promoter. SH-SY5Y neuronal cells stably transfected with a Renilla luciferase construct under the SV40 promoter were seeded in 96-well plates at a density of 2.5×10^4 cells per well. Following overnight incubation the cells were stimulated with medium containing piperine or vehicle. Staurosporine (0.1 μM) served as positive control. The Renilla luciferase activity was measured 5 h later using a luminometer (Berthold Technologies, Mithras LB 940). Piperine was tested in a range from 0.1 nM to 100 μM final concentration.

In series [4] the test system is neural stem cells. Put plainly: In vitro differentiation assay on adult neural stem cells (beta-III-tubulin promoter firefly/Renilla dual luciferase reporter). The format is cell-based, rat. Particulars: for differentiation of neural stem cells to neurons, dose dependence: 0.2 μM up to 25, 50 or 100 μM, compared with sham and 1 μM retinoic acid; for Stimulation factor for differentiation of neural stem cells / fold induction at 1 µM: 1 μM final compound concentration, in comparison to sham treatment; for fold induction at 1 µM: Rattus norvegicus, Neural stem cell, read-out: Stimulation factor for differentiation of neural stem cells. An excerpt: The neuroregenerative effect of the compounds according to the present invention can be assayed in vitro by measuring their stimulation of the differentiation of neural stem cells. Therefore, adult neural stem cells have to be isolated and subsequently cultivated in a suitable culture medium. After several passages in vitro the stem cells have to be co-transfected with a DNA construct coding for two discriminable reporter proteins one of them under the control of a constitutive promoter and the other under the control of a beta-III-tubulin promoter. The beta-III-tubulin promoter is induced during the process of neural stem cell differentiation; therefore the reporter protein under the control of this promoter serves as a marker for the stem cell differentiation in such an in vitro dual reporter assay (Schneider et al., J Clin Investigation 2005; 115:2083-2098). The person skilled in the art knows several suitable constitutive promoters such as the SV40-promoter, the TK-promoter, or the CMV-promoter. As discriminable reporter proteins for such a dual reporter assay one can use discriminable luciferases such as firefly luciferase and Renilla luciferase. The transfected cells have to be incubated with the test compound and with a positive and negative controls for normalization and background correction. As a positive control compound one can use retinoic acid (Guan et al., Cell Tissue Res. 2001; 305:171-176; Jacobs et al., Proc. Natl. Acad. Sci. USA 2006; 103:3902-3907), a suitable negative control is the sham treatment of the cells. The neroregenerative activity of the test compound is determined as the ratio of the signal of the beta-III-tubulin promoter controlled reporter versus the signal of the constitutively expressed reporter and is expressed as fold from the control. This assay is suitable to assess the neuroregenerative activity of piperine and derivatives thereof, but also can be used to screen for other potential neuroregenerative compounds. Preferably, such a screening can be used to test compounds which are already known to be suitable as a medicament in terms of its toxicology, bioavailability, solubility, stability etc.
Neural stem cells were isolated from the subventricular zone of 4 week-old male Wistar rats as described (Maurer et al, Proteome Sci. 2003; 1:4). Cells were cultivated in Neurobasal medium (Invitrogen) supplemented with B27 (Invitrogen), 2 mM L-glutamine, 100 units/ml penicillin, 100 units/ml streptomycin, 20 ng/ml […] (EGF), 20 ng/ml fibroblast growth factor-2 (FGF-2), and 2 μg/ml heparin. Once a week the neural stem cells were passaged and experiments were performed after 4 weeks in vitro. For DNA transfection, the cells were dissociated and plated on poly-L-ornithin/laminin-coated 96-well plates at a density of 50.000 cells/well. Cotransfection with the pGL3-p-βIII-tubulin vector (100 ng/well) and the pRL SV40 vector (100 ng/well) was carried out according to the FuGene6 Transfection protocol (Roche). The pRL SV40 vector (Promega) served as an internal control vector.
To amplify the class III β-tubulin gene promoter (fragment −450-+54), rat genomic DNA was used as a template for PCR (Dennis et al., Gene 2002; 294:269-277). The amplified fragment was inserted into the Mlu I/Xho I site of the pGL3-Basic firefly luciferase reporter vector (Promega) to generate the pGL3-p-βIII-tubulin experimental vector.
After overnight incubation, the plate was decanted and given in 8-fold replicates fresh medium containing piperine (Sigma) or vehicle. As a positive control for in vitro differentiation, stem cells were treated by adding 1 μM retinoic acid (Sigma) to the medium missing the mitogens.
After 48 hrs, the cells were harvested to prepare the cellular extracts for luciferase assay following the directions of the manufacturer (Promega). […]

On to `O=C(/C=C/c1ccc(Cl)cc1)N1CCCCC1` [(2E)-3-(4-chlorophenyl)-1-piperidylprop-2-en-1-one], for which the “degree of apoptosis relative to the staurosporine control” value in series [1] (SH-SY5Y) stood at 60%. Further, the “degree of apoptosis relative to the staurosporine control” value in series [2] is listed as 71%. The “viability of neuronal cells” value in series [3] was “did not show reduced viability”. In series [4], the “differentiation of neural stem cells to neurons, dose dependence” value (“differentiation … dose dependence” below) is reported as “significantly stimulates” and the “Stimulation factor for differentiation of neural stem cells” value (shortened to “Stimulation factor for differentiation”) was determined as 4.4 x-fold.

As to `CCCOc1ccc(C=CC(=O)N2CCCCC2)cc1` [1-[3-(4-propoxyphenyl)acryloyl]piperidine], the “degree of apoptosis relative to the staurosporine control” value in series [1] (SH-SY5Y) turned out to be 81%. Also, in series [2], the “degree of apoptosis relative to the staurosporine control” value is given as 77%. Besides, in series [4], the “differentiation … dose dependence” value was “significantly stimulates” and the fold induction at 1 µM came out at 4.

Regarding `CN[C@@H]1C[C@H]2O[C@@](C)([C@@H]1OC)n1c3ccccc3c3c4c(c5c6ccccc6n2c5c31)C(=O)NC4` [staurosporine, reference compound], the “degree of apoptosis relative to the staurosporine control (staurosporine alone)” value stood at 100% in series [1] (staurosporine 0.1 μM alone, positive control, SH-SY5Y) and 100% in series [2] (staurosporine 0.1 μM alone, positive control).

Consider `NC1(C(=O)/C=C/c2ccc3c(c2)OCO3)CCCCCC1` [1-(3-trans-benzo-1,3-dioxol-5-ylacryloyl)cycloheptylamine], for which the entries for the “degree of apoptosis relative to the staurosporine control” value in series [1] (SH-SY5Y) and in series [2] were 49% and 55%, respectively. In addition, the “differentiation … dose dependence” value in series [4] is given as “significantly stimulates”. Further, the fold induction at 1 µM in series [4] was 4.

With `O=C(C=Cc1cc(Cl)c2c(c1)OCCO2)N1CCCCCC1` [1-Azepan-1-yl-3-(8-chloro-2,3-dihydro-benzol[1,4]dioxin-6-yl)-propenone], in series [4], the “Stimulation factor for differentiation” value worked out at 1.8 x-fold.

For the compound `CCCOc1ccc(C=CC(=O)NC2CCCCCC2)cc1` [N-cycloheptyl-3-(4-propoxyphenyl)acrylamide], in series [4], the “differentiation … dose dependence” value was “significantly stimulates” and the fold induction at 1 µM was 1.7.

Take `O=C(/C=C/c1ccc2c(c1)OCO2)N1CCCC1` [1-(3-trans-benzo-1,3-dioxol-5-ylacryloyl)pyrrolidine]: the “degree of apoptosis relative to the staurosporine control” value in series [1] (SH-SY5Y) is 72%. Further, in series [4], the “differentiation … dose dependence” value is “significantly stimulates” and the fold induction at 1 µM amounted to 1.3.

For the compound `COc1cc(CNC(=O)CCCC/C=C/C(C)C)ccc1O` [capsaicin, reference compound], the “anti-apoptotic effect compared to piperine (10 μM)” value in series [1] (capsaicin 10 μM with staurosporine 0.1 μM) is “only a marginal anti-apoptotic effect”. Also, the “stimulating effect on the differentiation of neural stem cells” value in series [4] (0.1 nM to 100 μM final concentration) was “no stimulating effect”.

On to `O=C(C=Cc1ccc2c(c1)OCO2)NCC1CCCO1` (centres unmarked) [3-(1,3-benzodioxol-5-yl)-N-(tetrahydro-2-furanylmethyl)acrylamide], for which the fold induction at 1 µM in series [4] was determined as 1.5.

For the compound `O=C(C=Cc1ccc2c(c1)OCO2)NC1CCCCCCC1` [3-(1,3-benzodioxol-5-yl)-N-cyclooctylacrylamide], the “degree of apoptosis relative to the staurosporine control” value in series [1] (SH-SY5Y) was 77%; in series [2], 75%. In addition, the “differentiation … dose dependence” value in series [4] was “significantly stimulates”. For the same compound, in series [4], the fold induction at 1 µM came to 5.

On to `O=C(C=Cc1ccc2c(c1)OCCCO2)N1CCCCCC1` [1-Azepan-1-yl-3-(3,4-dihydro-2H-benzo[b][1,4]dioxepin-7-yl)-propenone], for which the “degree of apoptosis relative to the staurosporine control” value in series [1] (SH-SY5Y) and in series [2] was 83% throughout. In series [3], the “viability of neuronal cells” value is “did not show reduced viability”. For the same compound, the “differentiation … dose dependence” value in series [4] is “significantly stimulates”. Moreover, the “Stimulation factor for differentiation” value in series [4] stood at 6.1 x-fold.

Take “3-(Chloro-3,4-dihydro-2H-benzo[b][1,4]dioxepin-7-yl)N-cyclohexyl-acrylamide”: in series [4], the “Stimulation factor for differentiation” value is 1.7 x-fold.

`COc1ccc(C=CC(=O)NC2CCCCCCC2)cc1` [N-cyclooctyl-3-(4-methoxyphenyl)acrylamide]: in series [4], the “differentiation … dose dependence” value was “significantly stimulates” and the fold induction at 1 µM came out at 1.9.

As for `CCCOc1ccc(C=CC(=O)N2CCCCCC2)cc1` [1-[3-(4-propoxyphenyl)acryloyl]azepane], in series [4], the fold induction at 1 µM is 2.3.

`O=C(C=Cc1ccc2c(c1)OCO2)NC1CC2CCC1C2` (centres unmarked) [3-(1,3-benzodioxol-5-yl)-N-bicyclo[2.2.1]hept-2-ylacrylamide]: the fold induction at 1 µM in series [4] came out at 1.7.

Regarding `O=C(C=Cc1cc(Cl)c2c(c1)OCCCO2)N1CCCCCC1` [1-Azepan-1-yl-3-(9-chloro-3,4-dihydro-2H-benzo[b][1,4]dioxepin-7-yl)-propenone], the “Stimulation factor for differentiation” value in series [4] is 2.2 x-fold.

Take `NC1(C(=O)/C=C/c2ccc3c(c2)OCO3)CCCC1` [1-(3-trans-benzo-1,3-dioxol-5-ylacryloyl)cyclopentylamine]: the “degree of apoptosis relative to the staurosporine control” value in series [1] (SH-SY5Y) is 77%. Moreover, in series [4], the “differentiation … dose dependence” value is reported as “significantly stimulates” and the fold induction at 1 µM is 1.4.

Take `CC1CCN(C(=O)C=Cc2ccc3c(c2)OCO3)CC1` [1-[3-(1,3-benzodioxol-5-yl)acryloyl]-4-methylpiperidine]: in series [4], the “differentiation … dose dependence” value is “significantly stimulates” and the fold induction at 1 µM was found to be 1.9.

For the compound `CCOc1ccc(C=CC(=O)NC2CCCCC2)cc1` [N-cyclohexyl-3-(4-ethoxyphenyl)acrylamide], in series [4], the fold induction at 1 µM came out at 1.7.

In the case of `COc1cccc(NC(=O)/C=C/c2ccc(Cl)cc2)c1` [SB366791, reference compound], the “inhibition of the neuroprotective effect of piperine” value in series [1] (SB366791 10 nM to 100 nM with piperine 10 μM and staurosporine 0.1 μM) is recorded as “did not result in any inhibition”. Besides, the “inhibition of the neuroregenerative effect of piperine” value in series [4] (SB366791 10 μM co-incubated with 10 μM piperine) was “did not result in any inhibition”.

For the compound `CCCOc1ccc(C=CC(=O)NC2CCCC2)cc1` [N-cyclopentyl-3-(4-propoxyphenyl)acrylamide], in series [4], the “differentiation … dose dependence” value is “significantly stimulates” and the fold induction at 1 µM stood at 1.6.

Take `CCOc1ccc(C=CC(=O)NC2CCCO2)cc1` (centres unmarked) [3-(4-ethoxyphenyl)-N-(tetrahydro-2-furanyl)acrylamide]: in series [4], the fold induction at 1 µM came to 1.5.
